Experimental data published in patent US20140221485A1, “LIPOPHILIC DOPAMINE DERIVATIVES AND THEIR USE” (NOVALIQ GMBH, priority 2011, published 2014).
“Also recorded” adds a separate entry of the source.

Legend:
HSPA5 = assay: UPR target gene transcription by qPCR in endothelial cells; assay type: cell-based; conditions: 100 μM, 24 h
Procedure: (§1) Endothelial cells were stimulated for 24 h with 100 μM of NOD, NOT, BB, BBNB or BBNO (see Table 1 for compound structures). RNA was isolated from each sample and transcribed into cDNA. Expression of selected UPR target genes was assessed by qPCR.

MANF = assay: as above; assay type: cell-based; conditions: 100 μM, 24 h
Procedure: as §1

DDIT3 = assay: as above; assay type: cell-based; conditions: 100 μM, 24 h
Procedure: as §1

HYOU1 = assay: as above; assay type: cell-based; conditions: 100 μM, 24 h
Procedure: as §1

[1] = system: Human umbilical vein endothelial cells (HUVEC); assay: Hypothermic preservation of HUVEC, LDH release; assay type: cell-based; conditions: 100 μM for 1 h, then 24 hrs on ice in UW solution
Procedure: The hypothermic preservation properties of NOD, A-NOD and N-pivaloyl dopamine (also referred to as NPD, or N-[2-(3,4-dihydroxyphenyl)ethyl]tert-butylamide) were examined. Human umbilical vein endothelial cells (HUVEC) were seeded in 24 well plates and grown until confluence. Hereafter, HUVEC were stimulated for 1 h with 100 μM of NOD, A-NOD or NPD. Cells that were not treated (Md) served as control. The medium was aspirated and the cells were stored for 24 hrs on ice in University of Wisconsin (UW) solution. Cell damage was assessed by measuring lactate dehydrogenase (LDH) release, using a commercially available LDH release assay (Roche). To this end, 100 μl of supernatant was added to 100 μl of assay reaction mixture. The plates were incubated for 30 minutes and the absorption (OD490) was assessed. All experimental conditions were performed in triplicate.
An increase in LDH activity correlates with the amount of dead or damaged cells.

Lewis rats [2] = assay: Effect on body weight in ARF rat model; assay type: in vivo; conditions: kidneys clamped 45 min, continuous infusion 10 μL/h over 5 days, 40 μmmol/mL
Procedure: (§2) Kidneys of Lewis rats (n=8) were clamped for 45 min to induce acute renal failure (ARF). Afterwards the rats were treated with continuous infusions (10 μL/h over 5 days) of either saline, dopamine or N-octanoyl dopamine (NOD), using an osmotic minipump. The concentration of dopamine and NOD was 40 μmmol/mL. The rats' body weight was monitored for 5 days.

VCAM-1 = assay: TNF-α mediated VCAM-1 expression in HUVEC, immunoblot; assay type: cell-based, human; conditions: TNF-α 24 h, 100 μM compound
Procedure: (§3) The anti-inflammatory effects of A-NOD and NOD were examined, specifically as to their impact on TNF-α (tumour necrosis factor alpha) mediated VCAM-1 (vascular cell adhesion molecule 1) expression. Human umbilical vein endothelial cells (HUVEC) were cultured until confluence. Hereafter the cells were stimulated for 24 h with TNF-α in the presence or absence of 100 μM NOD or A-NOD. Cells that were not stimulated (M) served as control. Cells were harvested and lysed in Laemli buffer. Hereafter, 20 μL of the lysates were boiled and subjected to SDS-PAGE. The resulting gel was blotted on PVF membranes and the membrane was subsequently incubated overnight with TBS/Tween/5% dry milk powder to block unspecific binding. The upper part of the membrane was probed with an anti-VCAM-1 antibody and the lower part with an anti-HO1 antibody (heme oxygenase-1). After thoroughly washing the membrane was incubated with appropriate HRP conjugates, bands were visualized using chemoluminescence (shown in FIG. 7).

HO1 (heme oxygenase-1) = assay: HO1 expression in HUVEC, immunoblot; assay type: cell-based, human; conditions: TNF-α 24 h, 100 μM compound
Procedure: as §3

[3] = system: ER stress response element (ESRE); assay: ESRE luciferase reporter in transfected endothelial cells; assay type: cell-based; conditions: stimulated 24 hours
Procedure: The induction of UPR is mediated by the binding of transcription factors to an ER stress response element (ESRE) featured in the UPR (unfolded protein response) target genes. Endothelial cells were transfected by means of lentiviral transfection using a reporter luciferase construct under the control of ESRE responsive elements. After two days, the transfected cells were stimulated for 24 hours with NOD or dopamine or NPD (N-pivaloyl dopamine, also referred to as N-[2-(3,4-dihydroxyphenyl)ethyl]tert-butylamide), or N-[2-(4-hydroxyphenyl)ethyl]octanamide (referred to as NOT), or medium (control). Chemiluminescence activity of the luciferase was then measured.

TRPV-1-receptors = TRPV-1-receptors (Homo sapiens, UniProt Q8NER1); conditions: Greffrath et al. 2011; results in desensitization of the receptor; cited from earlier work
Chain of TRPV-1-receptors (Q8NER1 whole entry): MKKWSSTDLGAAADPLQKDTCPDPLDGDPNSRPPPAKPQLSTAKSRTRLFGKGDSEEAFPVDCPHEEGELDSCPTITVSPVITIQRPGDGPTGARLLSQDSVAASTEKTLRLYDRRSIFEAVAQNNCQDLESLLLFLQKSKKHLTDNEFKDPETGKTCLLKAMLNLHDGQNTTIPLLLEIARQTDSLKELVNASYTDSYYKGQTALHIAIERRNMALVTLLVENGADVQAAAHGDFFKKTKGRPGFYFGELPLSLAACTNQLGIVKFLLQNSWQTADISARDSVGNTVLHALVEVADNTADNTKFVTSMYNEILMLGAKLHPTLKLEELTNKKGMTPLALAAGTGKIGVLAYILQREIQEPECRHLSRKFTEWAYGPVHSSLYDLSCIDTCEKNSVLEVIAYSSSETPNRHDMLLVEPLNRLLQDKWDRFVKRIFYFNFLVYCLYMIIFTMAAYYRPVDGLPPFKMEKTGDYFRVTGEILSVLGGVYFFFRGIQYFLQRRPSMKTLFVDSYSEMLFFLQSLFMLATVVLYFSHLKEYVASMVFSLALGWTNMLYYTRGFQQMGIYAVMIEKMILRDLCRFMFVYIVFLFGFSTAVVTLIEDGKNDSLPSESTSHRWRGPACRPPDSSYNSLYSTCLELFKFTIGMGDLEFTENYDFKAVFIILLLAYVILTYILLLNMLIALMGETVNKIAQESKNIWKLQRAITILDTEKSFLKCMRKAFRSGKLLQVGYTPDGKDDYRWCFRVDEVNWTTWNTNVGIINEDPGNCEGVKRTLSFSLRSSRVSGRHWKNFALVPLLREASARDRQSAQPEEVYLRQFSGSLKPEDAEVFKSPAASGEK

Lewis rats [4] = assay: Renal histology after ARF (ED1-cell infiltration, necrotic tubulus cells); assay type: in vivo, rat; conditions: in comparison with saline- and dopamine-treated rats
Source text: The kidneys of the Lewis rats of examples 3 and 4 were harvested. The renal tissue was examined with regard to the infiltration by inflammatory ED1-cells and signs of necrotic tubulus cells.

Lewis rats [5] = assay: Effect on renal function (serum creatinine) in ARF rat model; assay type: in vivo; conditions: continuous infusion over 5 days, from day 1 vs saline and day 3 vs dopamine, P<0.05
Procedure: as §2, with “minipump” for “minipump. The concentration of dopamine”, “the same concentrations as in Example 3.” for “NOD was 40 μmmol/mL.”, “renal function, as measured by the serum creatinine concentration,” for “body weight”

[6] = target: T1, protein disulfide isomerase (PDI) (Homo sapiens, UniProt P07237); assay: ProteoStat PDI assay kit, fluorescence-based; assay type: biochemical; conditions: serial dilutions, excitation about 500 nm, emission about 603 nm
T1 construct: purchased
T1 sequence (P07237 18-508): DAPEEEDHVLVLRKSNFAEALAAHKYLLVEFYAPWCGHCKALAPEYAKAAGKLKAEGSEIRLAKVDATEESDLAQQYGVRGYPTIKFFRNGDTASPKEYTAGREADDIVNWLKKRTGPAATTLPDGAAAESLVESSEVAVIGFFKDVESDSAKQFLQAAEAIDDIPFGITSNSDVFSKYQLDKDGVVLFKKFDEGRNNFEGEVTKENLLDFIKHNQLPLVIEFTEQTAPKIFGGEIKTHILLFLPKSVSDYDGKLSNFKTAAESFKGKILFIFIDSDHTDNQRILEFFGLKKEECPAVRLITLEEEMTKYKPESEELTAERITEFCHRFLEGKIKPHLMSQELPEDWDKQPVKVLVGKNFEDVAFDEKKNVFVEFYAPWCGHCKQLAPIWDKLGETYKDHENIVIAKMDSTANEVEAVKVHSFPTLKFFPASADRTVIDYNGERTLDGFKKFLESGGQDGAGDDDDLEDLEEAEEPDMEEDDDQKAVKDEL
Procedure: Modulation of PDI activity by NOD was examined by using a fluorescence-based commercially available ProteoStat™ PDI assay kit and according to the kit protocol. The protocol was applied to serial dilutions of NOD, which were measured for inhibition of PDI activity using a fluorescent microplate reader at an excitation setting of about 500 nm and an emission filter of about 603 nm.

TNF-α = TNF-α activity in renal tissue measured by PCR; assay type: in vivo, rat; conditions: ARF rats, P<0.01
UPR target genes = assay: UPR gene transcription of endothelial cells under normoxic and hypoxic conditions (qPCR); assay type: cell-based; conditions: 100 μM, 24 h
Procedure: Endothelial cells were cultured for 24 h under normoxic conditions in the presence or absence of 100 μM of NOD or NOT. Cells that were cultured in the absence of either compounds (medium) served as a control. In addition, the cells were cultured under hypoxic conditions for 24 h in the presence or absence of 100 μM NOD or NOT. RNA was isolated and transcribed into cDNA. The expression of a selected set of UPR target genes was assessed by qPCR.

Row | Structure (SMILES) | Relative fold-increase of transcription compared to untreated endothelial cells, 2ΔΔ Ct, HSPA5 (HSPA5) [fold] | Relative fold-increase of transcription compared to untreated endothelial cells, 2ΔΔ Ct, MANF (MANF) [fold] | Relative fold-increase of transcription compared to untreated endothelial cells, 2ΔΔ Ct, DDIT3 (DDIT3) [fold] | Relative fold-increase of transcription compared to untreated endothelial cells, 2ΔΔ Ct, HYOU1 (HYOU1) [fold] | LDH activity (LDH release, OD490) compared to untreated cell control (Md) [1] | other results
1 | CCCCNC(=O)c1cc(OC(C)=O)ccc1OC(C)=O [BBNB] | 0.65 | 0.99 | 0.90 | 0.84 | – | –
2 | CC(C)(C)C(=O)NCCc1ccc(O)c(O)c1 [NPD, N-[2-(3,4-dihydroxyphenyl)ethyl]tert-butylamide] | – | – | – | – | significantly lower | –
3 | NCCc1ccc(O)c(O)c1 [dopamine, 4-(2-aminoethyl)benzene-1,2-diol] | – | – | – | – | – | body weight lost due to the ARF (Lewis rats [2]; osmotic minipump): ~11%
4 | CCCCCCCCNC(=O)c1cc(OC(C)=O)ccc1OC(C)=O [BBNO] | 1.08 | 0.96 | 3.74 | 4.72 | – | –
5 | CC(=O)Oc1ccc(OC(C)=O)c(C(=O)O)c1 [BB] | 0.60 | 1.03 | 1.01 | 0.90 | – | –
6 | CCCCCCCC(=O)NCCc1ccc(O)cc1 [NOT, N-[2-(4-hydroxyphenyl)ethyl]octanamide] | 0.94 | 1.08 | 1.12 | 1.26 | – | –
7 | CCCCCCCC(=O)NCCc1ccc(OC(C)=O)c(OC(C)=O)c1 [A-NOD, N-(3,4-bisacetoxyphenylethyl)octanamide] | – | – | – | – | significantly lower | anti-VCAM-1 antibody binding (TNF-α mediated VCAM-1 expression) (VCAM-1): in the absence of A-NOD or NOD showed strong anti-VCAM-1 antibody binding in comparison to the cells co-treated with A-NOD or NOD; anti-HO1 antibody binding (HO1 (heme oxygenase-1)): showed anti-HO1 antibody binding; ESRE-mediated transcription (luciferase chemiluminescence) [3]: did not significantly induce transcription
8 | CCCCCCCC(=O)NCCc1ccc(O)c(O)c1 [NOD, N-octanoyl dopamine] | 11.40 | 4.53 | 37.80 | 5.17 | significantly lower | action on TRPV-1-receptors (TRPV-1-receptors): agonist; necrotic tissue in kidney (Lewis rats [4]): less necrotic tissue; number of inflammatory ED1-cells in renal tissue (Lewis rats [4]; P<0.01): significantly reduced number of ED1-cells; renal function as measured by serum creatinine concentration (Lewis rats [5]): significantly improved renal function; inhibition of PDI activity [6]: inhibits PDI in a dose-dependent manner; anti-VCAM-1 antibody binding (TNF-α mediated VCAM-1 expression) (VCAM-1): in the absence of A-NOD or NOD showed strong anti-VCAM-1 antibody binding in comparison to the cells co-treated with A-NOD or NOD; TNF-α activity in the renal tissue as measured by PCR (TNF-α): significantly reduced; change in body weight before and after the ARF (percent of original body weight) (Lewis rats [2]): no significant change; also recorded: not significantly different from 100%; anti-HO1 antibody binding (HO1 (heme oxygenase-1)): showed anti-HO1 antibody binding; ESRE-mediated transcription (luciferase chemiluminescence) [3]: strongly induce ESRE-mediated transcription; UPR gene transcription under hypoxic conditions (UPR target genes; hypoxic): significantly higher levels of transcription; UPR gene transcription under normoxic conditions (UPR target genes; normoxic): only NOD induced UPR gene transcription
